Assays:
protein kinase C = test: Protein kinase C (PKC) inhibition assay (histone H1 phosphorylation); type: biochemical; details: rat brain PKC, histone H1 substrate
Protocol: The protein kinase C (PKC) assay is designed to duplicated the in vivo conditions required for protein kinase C function. Therefore, pH, salt and cofactor concentrations are similar to physiologic levels. Histone H1 (lysine rich) is used in the assay as the phosphorylation acceptor protein because it is readily available and serves as a good substrate for protein kinase C. The enzyme is prepared from rat brain and is purified to apparent homogeneity as determined by a single band on silver stained SDS-polyacrylamide. Studies on the mechanism of regulation of protein kinase C by phospholipids, DAG and Ca^+2 have been hampered by the physical properties of the lipid cofactors. In the screening assay, phosphatidylserine (PS) and DAG are cosonicated to form unilamellar and multilamellar vesicles. The concentration of lipids in the assay are suboptimal to maximize the detection potential of the assay for inhibitors. […] The assay is started with the addition of enzyme and stopped after 10 min by the addition of 25% trichloroacetic acid (TCA) and 1.0 mg/ml bovine serum albumin (BSA). The radioactive histone product is retained and washed on glass fiber filters that allow the unreacted ^32 P-ATP to pass through. The amount of phosphorylation is determined by the radioactivity measured in a scintillation counter. Controls are included in every assay to measure background activity in the absence of enzyme, activity in the absence of lipids and the maximum enzyme activity with saturating levels of the activator lipids.

P388 murine leukemia = test: P388 leukemia tumor assay in mice, survival time; type: in vivo, mouse
From the text: P388 Leukemia Tumors. Mice were young adult, pathogen-free, BALA/c×DBA/2 F1 (i.e., CD2F1) females purchased from Charles River Laboratories. The tumor line was the P388 murine leukemia, ascites form, obtained from the National Cancer Institute (NCI) Tumor Repository (Frederick, Md.). The tumor was maintained in the serial passage in mice by periodic intraperitoneal (ip) implantation. For this experiment, 10^6 hemacytometer-counted P388 murine leukemia cells were implanted ip into mice on Day 0. The mice were randomized into one untreated control group of 20 and 15 test groups of six mice each. All drug treatment was delivered ip on the basis of the average body weight of each group. […] Body weights were recorded on Days 1, 5, 9, 11, and 18. Deaths were recorded daily. Dying mice were necropsied, and the presence or absence of ascites or splenomegaly was recorded. Drug effectiveness was assessed on the basis of the survival time. Results were expressed as a percentage of the control survival time (Survival Time=T/C×100%; T=test animals; C=control animals). The criterion for effectiveness was determined by: T/C×100≥125 percent.

[1] = tested on: 8226 human myeloma cell line; test: Human tumor growth inhibition, 3H-thymidine incorporation, 8226; type: cell-based; details: 3H-thymidine uptake, read-out: IC50 8226
From the text: (§1) MCF-7 a human breast tumor cell line, and MCF-7/ADR an adriamycin resistant line of MCF-7 cells were obtained from the National Cancer Institute, Frederick, Md. NHEK a human keratinocyte cell line was obtained from Clonetic Corp., San Diego, Calif. 8226 a human myeloma cell line, 8226/MT a Mitoxantrone resistant line of 8226 cells, and 8226 ADR an adriamycin resistant line of 8226 cells were obtained from Dr. Bill Dalton, Arizona Cancer Center, Tuscon, Ariz.
(§2) Human tumor cells are trypsinized (0.05% trypsin, GIBCO), counted with a hemacytometer and seeded at a concentration of 10,000 cells/well in a 96 well microtiter plate. After allowing cells to attach to the surface overnight, the culture medium is aspirated and replaced with 100 μl of fresh medium. Test agents are diluted to determine dose response at 2× final concentration and added in quadruplicate at 100 μl/well to bring the total volume of each well to 200 μl. The microtiter plate is then incubated at 37° C. 5% CO2 overnight (18-24 hrs) before ^3 H-thymidine is added at a concentration of 0.5 μCi/well in 50 μl culture medium. The plate is incubated again for 4 hrs under the same conditions as above. Supernatant is then aspirated and 50 μl trypsin (0.05%, GIBCO) is added to each well. Cells are checked microscopically to determine detachment from surfaces, and plates are then harvested with a cell harvester (PHD, Cambridge Technology, Inc.) Filter papers corresponding to wells are placed in scintillation vials and counted to determine the amount of ^3 H-thymidine incorporated by the cells. Test agent response is compared to a positive control of cell wells with culture media only to determine the IC50. IC50 is the concentration of test compound required to inhibit fifty percent of the incorporation of ^3 H-thymidine into proliferating cells not exposed to test agent. Uptake of ^3 H-thymidine is a standard test for measuring the metabolism of cells. Cells which are actively proliferating take up ^3 H-thymidine, whereas cells that are not proliferating take up ^3 H-thymidine at much slower rates or not at all. Test agents that inhibit the uptake of ^3 H-thymidine thus slow the growth of cells.

[2] = tested on: 8226/ADR adriamycin resistant line of 8226 cells; test: Human tumor growth inhibition, 3H-thymidine incorporation, 8226/ADR; type: cell-based; details: 8226/ADR vs 8226
From the text: as §1, §2

## CCN(CC)CC(O)CNc1ccc(NCC2CO2)c2c1C(=O)c1ccccc1C2=O (centres unmarked) [Compound 1b-1, 1-(3-diethylamino-2-hydroxypropylamino)-4-(2,3-epoxypropylamino)-9, 10-anthracenedione]
Protein kinase C
  IC50: 110 µM
P388 murine leukemia; 16 mg/kg, Q4D × 3, ip, survival time
  % T/C p388 Leukemia: 140%
P388 murine leukemia; all dosages and schedules
  survival time of mice (in words): effectively increased the survival time
[1]
  IC50: 0.06 µM
[2]
  Resistance Ratio (8226/ADR): 0.26

From patent publication US5344841A, “Bis-(hydroxylakylamino)-anthraquinone inhibitors of protein kinase C” (Sphinx Pharmaceuticals Corporation, priority 1992, dated 1994)
